According to patent publication US20240393340A1, “PROGNOSIS AND PREDICTIVE BIOMARKERS AND BIOLOGICAL APPLICATIONS THEREOF” (INSTITUT GUSTAVE ROUSSY, priority 2013, published 2024):

What was measured:
Format in all cases: cell-based
[1] = test system: ERK phosphorylation; test: Western blot analysis of total and phosphorylated proteins; settings: all tested cell lines
[2] = test system: eIF4F complex; test: Cap binding assay (m7GTP-Sepharose beads)
Procedure: FIG. 3: Examination of eIF4F complex formation by the “cap binding assay” in the indicated cell lines. Eluates from the beads (m7G-bound) and total extracts (input) were analyzed on 4% to 12% gradient gel electrophoresis, followed by Western blotting with the indicated antibodies.
Cells were grown for 48 h in 10% Fetal Bovine Serum (FBS) followed by 24 h without FBS. Cells were subsequently grown for 12 h in the absence or the presence of trastuzumab. Cells were harvested and lysed in ice-cold lysis buffer (KCl 150 mM, Hepes pH 7.5 50 mM, DTT 2 mM, Tween 20 0.2%, and Complete Protease Inhibitor Cocktail from Roche). Cell lysates were incubated with 7-methyl-GTP-sepharose 4B beads (Amersham Biosciences) for 2 h at 4° C. Eluates from the beads (7 mG-bound) and total extracts (Tot.) were analyzed on 4-12% gradient gel electrophoresis followed by western blot. Experiments were repeated at least 4 times.
In a so-called “cap binding assay”, synthetic m7GTP-Sepharose beads were used to capture eIF4E and its binding partners, eIF4G (called Cap-ON complex) and 4EBP1 (called Cap-OFF complex). The inventors observed that following PLX-4720 treatment, the amount of eIF4E-bound 4EBP1 (Cap-OFF complex) was increased, whereas the quantity of eIF4E-bound eIF4G (Cap-ON complex), i.e. the formation of the active eIF4F complex, was decreased in the two PLX-4720-sensitive cell lines (A375, Mel888) (FIG. 3). In contrast, and consistent with the inventors' hypothesis, the formation of the eIF4F complex was unchanged in the two cell lines (Mel624, A2058) with less sensitivity to PLX-4720.

[3] = test system: Mel888; test: Short-term growth-inhibition assay, PLX-4720 (Example 1); settings: Mel888 cell line; read-out: half-maximum inhibitory concentration (IC50)
Procedure: (§1) FIGS. 1A-1B: Short-term growth-inhibition assay of a panel of melanoma cell lines including BRAF (V600E) cell lines and an NRAS (Q61R) mutated cell line. FIG. 1A. Cells were treated with increasing concentrations of N-[3-[(5-Chloro-1H-pyrrolo[2,3-b]pyridin-3-yl)carbonyl]-2,4-difluorophenyl]-1-propanesulfonamide (PLX-4720) for 72 h and cell viability was determined using CellTiter-Blue by measuring the absorbance at 540 nm in a microplate reader. Error bars show data +standard error. Means were derived from four replicates (n=4). FIG. 1B. Long-term colony formation assay of the indicated cells. Cells were grown in the absence or presence of PLX-4720 at the indicated concentrations for 15-20 days. For each cell line, all dishes were fixed at the same time, stained and photographed.
(§2) Cell proliferation was measured using a WST-1 reagent (Roche Applied Science, IN, USA). Melanoma cells were plated with 5000 cells per well in 96-well tissue culture plates. After 24 hours, the cells were treated with drugs or DMSO at the indicated concentrations, in triplicates. WST-1 reagent was added to the wells and incubated at 37° C. for 2 hours before and after the treatment period of 48 hours. The plates were then read at 450 nm on a Wallac Victor^3 1420 Multilabel Counter (Perkin Elmer, ON, Canada). Absorbance readings are expressed in terms of cell proliferation as percent of the control cells growth within the 48 hours of treatment.
(§3) The inventors quantified the effect of exposing these cell lines to PLX-4720 on the half-maximum inhibitory concentration (IC50) (Table 1).

[4] = test system: SK-Mel5; test: as above; settings: Homo sapiens, SK-MEL-5; SK-Mel5 cell line; read-out: half-maximum inhibitory concentration (IC50)
Procedure: as §1, §2, §3

[5] = test system: SK-Mel28; test: as above; settings: Homo sapiens, SK-MEL-28; SK-Mel28 cell line; read-out: half-maximum inhibitory concentration (IC50)
Procedure: as §1, §2, §3

[6] = test system: A375; test: as above; settings: Homo sapiens, A-375; A375 cell line; read-out: half-maximum inhibitory concentration (IC50)
Procedure: as §1, §2, §3

[7] = test system: Mel10; test: as above; settings: Mel10 cell line; read-out: half-maximum inhibitory concentration (IC50)
Procedure: as §1, §2, §3

[8] = sensitive cell lines A375, Mel888

formation / disruption of the eIF4F (eIF4E-eIF4G) complex ([2]; less sensitive cell lines Mel624, A2058): unchanged | amount of eIF4E-bound 4EBP1 (Cap-OFF complex) [2, 8]: increased | quantity of eIF4E-bound eIF4G (Cap-ON complex) [2, 8]: decreased | IC50 [4]: 1500 nM | IC50 [5]: 400 nM | IC50 [6]: 400 nM
SMILES: CCCS(=O)(=O)Nc1ccc(F)c(C(=O)c2c[nH]c3ncc(Cl)cc23)c1F [PLX-4720, N-[3-[(5-Chloro-1H-pyrrolo[2,3-b]pyridin-3-yl)carbonyl]-2,4-difluorophenyl]-1-propanesulfonamide]
ERK phosphorylation downstream of BRAF [1]: inhibited ERK phosphorylation | IC50 [3]: 100 nM | IC50 [7]: > 10000 nM
